For this assay, the target named is T1, G1 APOL1 (Homo sapiens, UniProt O14791, I384M/S342G).
T1 construct: expressed in transfected cells
T1 sequence (O14791 28-398 S342G/I384M): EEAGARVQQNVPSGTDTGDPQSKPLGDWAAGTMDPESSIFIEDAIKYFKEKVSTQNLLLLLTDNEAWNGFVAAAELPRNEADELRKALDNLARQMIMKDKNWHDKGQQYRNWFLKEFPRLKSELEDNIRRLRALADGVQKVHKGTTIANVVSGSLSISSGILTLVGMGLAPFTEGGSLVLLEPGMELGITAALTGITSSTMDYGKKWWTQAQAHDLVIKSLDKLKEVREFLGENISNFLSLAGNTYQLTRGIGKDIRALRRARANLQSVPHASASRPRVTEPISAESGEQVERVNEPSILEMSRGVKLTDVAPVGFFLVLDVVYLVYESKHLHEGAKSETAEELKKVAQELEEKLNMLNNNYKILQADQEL
Briefly: Acute APOL1 Thallium Assay with Inducible Stable Clones of HEK 293 Cells. The class given is cell-based. To be noted: HEK 293 inducible stable clones, G1 APOL1; read-out: Thallium Assay (IC50). An outline of the steps: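 Pore activity was read as the fluorescence increase from Tl+ entering cells loaded with an AM-ester thallium indicator dye. The cells were tetracycline-inducible HEK293 T-Rex expressing G1 APOL1 (clone DC3.25), induced when plated at 26000 per well and incubated at 37° C.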

Bounds are passed on as bounds.

The record followed here is patent publication US20230014907A1, “INHIBITORS OF APOL1 AND METHODS OF USING SAME” (Vertex Pharmaceuticals Incorporated, priority 2020, published 2023).

As usually defined, the IC50 is the concentration that gives 50% inhibition.

Regarding `O=C(CCc1c(-c2ccc(F)cc2)[nH]c2c(F)cc(F)cc12)N[C@H]1C[C@H](O)C1` [Compound 159], the IC50 was above 1000 nM.
Next, `O=C(NCCc1c(-c2ccc(F)cc2)[nH]c2c(F)cc(F)cc12)c1cncs1` [Compound 384]: above 1000 nM; `O=C(NCCc1c(-c2ccc(F)cc2)[nH]c2c(F)cc(F)cc12)NCC(O)C(F)F` (stereo not drawn) [Compound 267]: above 1000 nM.
Then `COC(=O)/C=C/c1c(-c2ccc(C#N)cc2)[nH]c2c(F)cc(F)cc12` [Compound 521, Methyl (E)-3-[2-(4-cyanophenyl)-5,7-difluoro-1H-indol-3-yl]prop-2-enoate], with above 1000 nM; and `O=C(NCCc1c(-c2ccc(F)cc2)[nH]c2c(F)cc(F)cc12)c1cc[nH]n1` [Compound 351], with above 1000 nM.
For `O=C1CC(C(=O)NCCc2c(-c3ccc(F)cc3)[nH]c3c(F)cc(F)cc23)CC(=O)N1` [Compound 320], the IC50 was above 1000 nM.
Then `C[C@H](NC(=O)NCCc1c(-c2ccc(F)cc2)[nH]c2c(F)cc(F)cc12)C(C)(C)O` [Compound 268], with above 1000 nM.
Next, `CO[C@H]1C[C@@H](NC(=O)OCCc2c(-c3ccc(F)cc3)[nH]c3c(F)cc(F)cc23)C1` [Compound 496]: above 1000 nM; `CC(NC(=O)OCCc1c(-c2ccc(F)cc2)[nH]c2c(F)cc(F)cc12)C(N)=O` (racemic) [Compound 460]: 250 to 1000 nM; `O=CNCCc1c(-c2ccc(F)cc2)[nH]c2c(F)cc(F)cc12` [Compound 419, N-[2-[5,7-difluoro-2-(4-fluorophenyl)-1H-indol-3-yl]ethyl]formamide]: above 1000 nM.
Regarding `O=C(NC[C@H](O)CO)OCCc1c(-c2ccc(F)cc2)[nH]c2c(F)cc(F)cc12` [Compound 470], the 50% inhibitory concentration (IC50) was in the range of 250 to 1000 nM.
Take `Cc1cc(F)c2[nH]c(-c3ccc(F)cc3)c(CCC(=O)NC(CO)(CO)CO)c2c1` [Compound 217]: the IC50 was above 1000 nM.
Then `O=C(NCCc1c(-c2ccc(F)cc2)[nH]c2c(F)cc(F)cc12)C1CC(O)(C(F)(F)F)C1` (stereo not drawn) [Compound 314], with above 1000 nM; and `O=C1NCCCC1C(=O)NCCc1c(-c2ccc(F)cc2)[nH]c2c(F)cc(F)cc12` (stereo not drawn) [Compound 330], with above 1000 nM; and `CC(CC(=O)NC(CO)C(F)(F)F)c1c(-c2ccc(F)cc2)[nH]c2c(F)cc(F)cc12` (single isomer, unassigned) [Compound 514], with above 1000 nM.
Regarding `N#Cc1ccc(-c2[nH]c3c(F)cc(F)cc3c2/C=C/C(=O)N[C@H]2CCNC2=O)cc1` [Compound 522, (E)-3-[2-(4-cyanophenyl)-5,7-difluoro-1H-indol-3-yl]-N-[(3S)-2-oxopyrrolidin-3-yl]prop-2-enamide], the IC50 was above 1000 nM.
Next, `O=C(NCC1CCOC1)OCCc1c(-c2ccc(F)cc2)[nH]c2c(F)cc(F)cc12` (stereo not drawn) [Compound 491]: above 1000 nM; `O=C(NCCc1c(-c2ccc(F)cc2)[nH]c2c(F)cc(F)cc12)c1c[nH]cn1` [Compound 353]: 250 to 1000 nM; `O=C(CCc1c(-c2ccc(F)cc2)[nH]c2c(Cl)cccc12)N[C@@H](CO)C(F)F` [Compound 231, 3-[7-chloro-2-(4-fluorophenyl)-1H-indol-3-yl]-N-[(1S)-2,2-difluoro-1-(hydroxymethyl)ethyl]propanamide]: below 250 nM.
Next, `C[C@@H](CO)NC(=O)CCCc1c(-c2ccc(F)cc2)[nH]c2c(F)cc(F)cc12` [Compound 240]: 250 to 1000 nM.
Then `CC(CO)C(=O)NCCc1c(-c2ccc(F)cc2)[nH]c2c(F)cc(F)cc12` (racemic) [Compound 357], with below 250 nM.
Turning to `O=C(NCC1(O)CCC1)OCCc1c(-c2ccc(F)cc2)[nH]c2c(F)cc(F)cc12` [Compound 486], the IC50 is above 1000 nM.
As to `O=C(NCCc1c(-c2ccc(F)cc2)[nH]c2c(F)cc(F)cc12)c1ccc(O)nc1` [Compound 334], the IC50 is above 1000 nM.
Then `CN(C[C@H](O)CO)C(=O)CCc1c(-c2ccc(F)cc2)[nH]c2c(F)cc(Cl)cc12` [Compound 211], with above 1000 nM; and `O=C(NCCc1c(-c2ccc(F)cc2)[nH]c2c(F)cc(F)cc12)C1(CO)CC1` [Compound 347], with below 250 nM.
`O=C(N[C@@H]1CCNC1=O)OCCc1c(-c2ccc(F)cc2)[nH]c2c(F)cc(F)cc12` [Compound 448]: the IC50 was below 250 nM.
Next, `CC(C)[C@@H](CO)NC(=O)OCCc1c(-c2ccc(F)cc2)[nH]c2c(F)cc(F)cc12` [Compound 459]: 250 to 1000 nM; `CC(C)(C#N)C(=O)NCCc1c(-c2ccc(F)cc2)[nH]c2c(F)cc(F)cc12` [Compound 411]: 250 to 1000 nM.
Next, `C[C@H](O)[C@H](CO)NC(=O)OCCc1c(-c2ccc(F)cc2)[nH]c2c(F)cc(F)cc12` [Compound 442]: below 250 nM.
Then `CC(O)CS(=O)(=O)NCCc1c(-c2ccc(F)cc2)[nH]c2c(F)cc(F)cc12` (stereo not drawn) [Compound 421], with above 1000 nM; and `COCCC(=O)NCCc1c(-c2ccc(F)cc2)[nH]c2c(F)cc(F)cc12` [Compound 412], with 250 to 1000 nM.
As for `O=C(NCCc1c(-c2ccc(F)cc2)[nH]c2c(F)cc(F)cc12)c1ccnc(C(F)(F)F)c1` [Compound 369], the IC50 is above 1000 nM.
Next, `NC1(C(=O)NCCc2c(-c3ccc(F)cc3)[nH]c3c(F)cc(F)cc23)CCC1` [Compound 349]: 250 to 1000 nM; `Cc1cc(F)c2[nH]c(-c3ccc(F)cc3)c(CCC(=O)NC3(CO)CCC3)c2c1` [Compound 216]: 250 to 1000 nM; `Cc1occc1CNC(=O)NCCc1c(-c2ccc(F)cc2)[nH]c2c(F)cc(F)cc12` [Compound 295]: above 1000 nM.
Then `O=C(CCc1c(-c2ccc(F)cc2)[nH]c2ccc(F)cc12)N[C@@H](CO)C(F)F` [Compound 3], with 250 to 1000 nM; and `C[C@H](NC(=O)OC(C)(C)C)C(=O)NCCc1c(-c2ccc(F)cc2)[nH]c2c(F)cc(F)cc12` [Compound 313], with above 1000 nM.
Regarding `O=C(NCCc1c(-c2ccc(F)cc2)[nH]c2c(F)cc(F)cc12)C1(F)CCC1` [Compound 406], the IC50 lay within 250 to 1000 nM.
Next, `O=C(CCc1c(-c2ccccc2)[nH]c2ccc(F)cc12)N[C@@H](CO)C(F)F` [Compound 235, N-[(1S)-2,2-difluoro-1-(hydroxymethyl)ethyl]-3-(5-fluoro-2-phenyl-1H-indol-3-yl)propanamide]: below 250 nM; `O=C1N[C@H](C(=O)NCCc2c(-c3ccc(F)cc3)[nH]c3c(F)cc(F)cc23)CO1` [Compound 336]: above 1000 nM; `NCCc1c(-c2ccc(F)cc2)[nH]c2c(F)cc(F)cc12` [Compound 432, 2-[5,7-difluoro-2-(4-fluorophenyl)-1H-indol-3-yl]ethanamine]: above 1000 nM.
On to `O=C1NCC(C(=O)NCCc2c(-c3ccc(F)cc3)[nH]c3c(F)cc(F)cc23)O1` (stereo not drawn) [Compound 337], for which the IC50 was above 1000 nM.
Next, `CN1CC(NC(=O)NCCc2c(-c3ccc(F)cc3)[nH]c3c(F)cc(F)cc23)CC1=O` (stereo not drawn) [Compound 294]: above 1000 nM.
Then `O=C(NCCc1c(-c2ccc(F)cc2)[nH]c2c(F)cc(F)cc12)c1cccnn1` [Compound 396], with above 1000 nM; and `Cc1occc1C(=O)NCCc1c(-c2ccc(F)cc2)[nH]c2c(F)cc(F)cc12` [Compound 394], with above 1000 nM.
